Four molecules from patent publication US20260234207A1, “Keratin YK93-8, and Preparation Method Therefor, Pharmaceutical Composition Thereof and Use Thereof” (INSTITUTE OF MATERIA MEDICA, CHINESE ACADEMY OF MEDICAL …, priority 2022, published 2026) can be followed below.

Data set [1] has as its system mouse prostatic hyperplasia model. The experiment in a line: Pharmacodynamic test on mouse prostatic hyperplasia model (propionate testosterone, androgen loading). The conditions noted are these: for Average weight / wet weight of the prostate: 30 days of administration; for prostate index: 30 days, wet weight of the prostate (mg)/body weight (g).
Experimental: Preparation of experimental animals: The experimental animals were adapted to the experimental environment (temperature 22° C.±2° C., relative humidity 50%±2%) for 1 day.
Subcutaneous injection of propionate testosterone to replicate mice prostatic hyperplasia model: Mice were randomly grouped 10 in each group before the model being established. Propionate testosterone (0.01 mg/kg) in soybean oil was injected subcutaneously, once a day for 30 consecutive days. Mice in the normal control group were injected subcutaneously with an equal volume of sodium carboxymethyl cellulose. […] Mice were weighed on the next day. After 30 days of administration, mice were weighed, executed. The prostate was excised through a median incision in the lower abdomen, the wet weight was weighed, and the prostate index was calculated by the wet weight of the prostate (mg)/body weight of the mouse (g).
The average value, standard deviation and standard error of the prostate index in each group were calculated. The data from the groups were compared with each other by T.TEST, and P<0.05 was considered as a significant difference.
The next data set deals with Lewis lung cancer. Here is the method:
Subcutaneous inoculation of Lewis cell suspension to replicate mouse Lewis lung cancer model: The Lewis tumor tissue was ground into a suspension with a glass homogenizer, the tumor suspension was aspirated with a syringe, the number of live cells was calculated, the concentration of the cells was adjusted to 2.6*10^6/ml with physiological saline, and then the suspension was injected to the left armpit of the mouse with 0.2 ml/mouse. On the next day, the mice were randomly divided into normal control group, cyclophosphamide (100 mg/kg) group, and YK93-8 (0.5 g/kg) group. Cyclophosphamide was injected intraperitoneally for single time, mice in YK93-8 group were given intragastric administration every day for 10 consecutive days, mice in the normal control group were orally given the equal volume of sodium carboxymethyl cellulose. On the day of the treatment, the weight was measured, 20 μl of blood was obtained from the orbital blood and the routine blood analysis was performed. The tumor blocks were stripped, weighed and photographed, and the tumor suppression rate was calculated.
The tumor suppression rate [(The average weight of the tumor in the normal control group—the average weight of the tumor in the experimental group)/The average weight of the tumor in the normal control group×100%] and the average value, standard deviation and standard errors of tumor weight were calculated.

The next data set has as its system B16F10 melanoma. The protocol: • Animals: female C57BL/6J mice; • Drugs: Cyclophosphamide for injection (CTX), YK93-8 • Instruments: electronic balance, Five classified blood cell analyser • Experiment grouping: • Normal control group; • Positive control group: cyclophosphamide group (100 mg/kg); • Protein YK93-8, (2 g/kg) group. • Method:
Subcutaneous inoculation of B16F10 cell suspension to replicate a mouse melanoma model: Under sterile conditions, the tumor block was removed, ground into tumor fluid, the concentration was adjusted with physiological saline to 2.58×10^6/ml, and 0.2 ml was taken to evenly inoculate subcutaneously on the armpit back of mice. On the next day, the animals were randomly grouped and administration began (recorded as Day 0). CTX (100 mg/kg) was administered once a week, YK-93-8 (2 g/kg) was administered daily, and mice in the normal control group were orally administered an equal volume of sodium carboxymethyl cellulose. On the day of treatment, weight was measured, 20 μL of blood was obtained by taking blood from the eye socket and the blood routine analysis was performed, the tumor block was peeled off, weighed and photographed, and the tumor suppression rate was calculated.
(§1) The tumor suppression rate [(The average weight of the tumor in the normal control group—the average weight of the tumor in the experimental group)/The average weight of the tumor in the normal control group×100%] and average value, standard deviation and standard errors of tumor weight were calculated.

The subject of a further data set is EL-4 lymphoma. Here is the method:
• Animals: Male C57BL/6J mice • Drugs: Cyclophosphamide for injection (CTX), YK93-8 • Instruments: electronic balance, Five classified blood cell analyser • Experiment grouping: • Normal control group; • Positive control group: cyclophosphamide (100 mg/kg); • Protein YK93-8, (2 g/kg) group. • Method:
Subcutaneous inoculation of EL-4 cell suspension to replicate a mouse lymphoma model: The EL-4 tumor tissue was ground into a suspension using a glass homogenizer, the tumor suspension was aspirated with a syringe, the number of live cells was calculated, the cell concentration was adjusted to 2.0*10^6/ml with physiological saline, and then the suspension was injected into the left armpit of mice with 0.2 ml/mouse. On the next day, mice were randomly divided into a normal control group, a cyclophosphamide (100 mg/kg) group, and a YK93-8 (2 g/kg) group. Cyclophosphamide was injected intraperitoneally for single time, mice in the YK93-8 (2 g/kg) group were orally administered by gavage daily for 13 consecutive days, while mice in the normal control group were administered orally with an equal volume of sodium carboxymethyl cellulose. On the day of treatment, weight was measured, 20 μl of blood was obtained from the orbital blood and the routine blood analysis was performed. The tumor blocks were stripped, weighed and photographed, and the tumor suppression rate was calculated.
as §1

Data set [2] deals with acetic acid-induced writhing of mice. Kind of data set: Pharmacodynamic test on mouse pain model (acetic acid-induced writhing). It is filed as in vivo, Male Kunming mice. As to conditions: 1% acetic acid intraperitoneally, writhing within 15 minutes. The protocol:
• Animals: Male Kunming mice; • Drugs: Tramadol Hydrochloride Sustained Release Tablets, Glacial acetic acid, YK93-8; • Instruments: electronic balance, timer • Experiment grouping: • Normal control group; • Positive control group: Tramadol Hydrochloride group; • Protein YK93-8, (0.5 g/kg) group. • Method:
Mice in the YK93-8 (0.5 g/kg) group were administered by gavage, while mice in the model group were given an equal volume of CMC-Na once a day for 7 consecutive days. 30 minutes after the last administration, 1% acetic acid was administered intraperitoneally, and the writhing times of mice within 15 minutes was recorded, and the inhibition rate of drug-induced writhing reaction was calculated. The observation criteria were concave abdominal cavity, extended hind limbs, and raised buttocks.
The inhibition rate was calculated by (Mean number of writhing reactions in the normal control group−Mean number of writhing reactions in the treatment group)/Mean number of writhing reactions in the normal control group *100%.
(In general: In writhing tests, fewer writhes than in controls are read as antinociception.)

In data set [3] the test system is lactation of pregnant mice. The experiment in a line: Pharmacodynamic test on lactation of pregnant mice. In kind it is in vivo, female Kunming pregnant mice. The conditions noted are these: 2 g/kg by gavage, 13 days. Here is the method: • Animals: female Kunming pregnant mice, weight: 30-50 grams • Drug: YK93-8 • Instruments: electronic balance • Experiment grouping: • Normal control group; • Protein YK93-8, (2 g/kg) group. • Method:
The parturition date of each pregnant mouse was recorded and the mice were randomly divided into normal control group and YK 93-8 group based on the parturition date.
YK93-8 (2 g/kg) was administered by gavage, and the weight and weight gain of the young mice were recorded daily. After 13 days of administration, the female mouse was euthanized using cervical dislocation method, and […] of blood samples were collected from the eye socket, left standing at room temperature for 1-2 hours, centrifuged 1000 g for 20 minutes. The content of prolactin in serum was measured.
The average daily weight gain of young mice (lactation yield of female mice) and serum prolactin content of female mice in each group were calculated.

The mark [4] stands for this setting: 0.1 g/kg intraperitoneally, single time.
Where [5] appears, read: 100 mg/kg intraperitoneally, single time, P<0.05.
Where [6] appears, read: 0.5 g/kg intragastric every day for 10 days.
Where [7] appears, read: 2 g/kg by gavage daily for 13 days.

Where a name gives a salt, the structure may show the parent alone. Read-outs that look alike come from different tables or passages of the source.

On to `CC(C)(C)NC(=O)[C@H]1CC[C@H]2[C@@H]3CC[C@H]4NC(=O)C=C[C@]4(C)[C@H]3CC[C@]12C` [finasteride], for which, in data set [1] (1 mg/kg orally), the “Average weight” value was 43.5 ± 3.5 g, the “wet weight of the prostate” value was 31.8 ± 4.8 mg and the prostate index came to 0.75 ± 0.12. Further, in data set [1] (3 mg/kg orally), the “Average weight” value is listed as 40.7 ± 3.1 g, the “wet weight of the prostate” value was determined as 29.2 ± 1.4 mg and the prostate index is recorded as 0.72 ± 0.08.

With `O=P1(N(CCCl)CCCl)NCCCO1` (stereo not drawn) [cyclophosphamide, Cyclophosphamide], the “Change of weight (g) Before administration” value in the data set on Lewis lung cancer (0.1 g/kg group) was 17.60 ± 0.59 g. In the data set with Lewis lung cancer (setting [4]), the “Change of weight (g) After administration” value was 19.95 ± 0.77 g, the “Tumor suppression (%)” value was 95.35% and the “Tumor weight” value is 0.14 ± 0.09 g. Also, in the data set on B16F10 melanoma (0.1 g/kg group), the “Change of weight (g) Before administration” value is 18.97 ± 0.55 g. In the data set with B16F10 melanoma (0.1 g/kg once a week), the “Change of weight (g) After administration” value stood at 19.07 ± 1.46 g, the “Tumor suppression (%)” value is listed as 85.82% and the “Tumor weight” value turned out to be 0.26 ± 0.11 g. Moreover, in the data set with EL-4 lymphoma (setting [4]), the “Tumor suppression (%)” value stood at 95.67% and the “Tumor weight” value worked out at 0.12 ± 0.03 g. Besides, in the data set on EL-4 lymphoma (setting [5]), the “leukocytes (blood routine test)” value is given as “significantly reduced”, the “lymphocytes (blood routine test)” value is given as “significantly reduced”, the “monocytes (blood routine test)” value is recorded as “significantly reduced” and the “neutrophils (blood routine test)” value is reported as “significantly reduced”.

The molecule `COc1cccc(C2(O)CCCCC2CN(C)C)c1` (stereo not drawn) [Tramadol Hydrochloride] displayed a Number of writhing in data set [2] (50 mg/kg) of 0.0 ± 0.00.

B1: YK93-8: keratin with the amino acid sequence shown in SEQ ID NO.1, expressed in Escherichia coli, band around 63 KD; protein of Example 3 (protein, listed as Manis pentadactyla)
chain: MSCRSYRVSSGRQIGNFSSCSAVMPQSLSRFRASSVSCRSGPGFRGLGGFGSRSVIAFGSCPPRMAAVGPRPIRCGVGFSAGSGLAFGLGDSCGAGLGFGTGSGLGYGFGGPGFGYRIGGVGVPAAPSITAVTVNQSLLTPLNLEIDPNAQRVKRDEKEQIKTLNNKFASFIDKVRFLEQQNKLLETKWNFLQDQKGVQSNLEPLFENYVANLRRQLDIVSSDQARLETERNNMQDVLEGFKKKYEEEVVFRANAENEFVALKKDVDAAFLNKSDLEANVDALIQEIDFLKNLYMAEIQLLQSHISDTSVIVKMDNSRDLNFDGIIAEVKAQYEEVARRSRADAEAWYQTKYEEMRMTAGQHSDNLRNTRDEINELTRVIQRLKAEIEHTKAQRAKLEAAIAEAEQQGEAALNDAKCKLADLEAALQQAKQDMARQLREYQELMNIKLALDIEIATYRRLLEGEEIRICEGVGPVNISVSSSRGGVVCGPEPLLTSSTLSRGGVTFSGGSSIRSSGACGLSLGGSRVVAAGGDVLSAGSRGGSVLVGDACAPSIPCPLPTDGGFSSCSGGRSSLGSSVRFVSTTTSRRTKY
Consider B1, for which the “Change of weight (g) Before administration” value in the data set with Lewis lung cancer (0.5 g/kg group) is recorded as 17.91 ± 0.26 g; in the data set with B16F10 melanoma (2 g/kg group), 19.20 ± 0.54 g. Moreover, the “Change of weight (g) After administration” value in the data set on Lewis lung cancer (setting [6]) was 21.93 ± 0.93 g; in the data set with B16F10 melanoma (2 g/kg daily) it was 19.78 ± 0.76 g. Moreover, the entries for the “Tumor suppression (%)” value with Lewis lung cancer (setting [6]), in the data set with B16F10 melanoma (2 g/kg daily) and in the data set on EL-4 lymphoma (setting [7]) were 27.83%, 50.18% and 13.18%, respectively. For the same molecule, the “Tumor weight” value with Lewis lung cancer (setting [6]) came to 2.16 ± 0.47 g; in the data set with B16F10 melanoma (2 g/kg daily) it was 0.90 ± 0.41 g; in the data set on EL-4 lymphoma (setting [7]), 2.44 ± 0.23 g. The “weight gain of young mice (lactation yield of female mice)” value in data set [3] was “no significant effect”. Besides, the “serum prolactin content in female mouse” value in data set [3] (vs normal control group) is “to some extent increase”. The “wet weight of the prostate” value in data set [1] (0.5 g/kg orally) is 44.3 ± 9.3 mg. In addition, the prostate index in data set [1] (0.5 g/kg orally) is 1.12 ± 0.20. Further, the Number of writhing in data set [2] (0.5 g/kg by gavage once a day for 7 days) is recorded as 13.76 ± 11.84.
